A short description of this assay: Hydroxylapatite column test (retention time on HAp column by HPLC). Type of assay: binding. Particulars: HAp column 0.7 x 5 cm, eluent 0.5 mM PBS pH 7.4, flow rate 0.25 mL/min, 220 nm; longer retention = higher mineral affinity. As to the method: Hydroxylapatite Column Test
Using the column which is filling hydroxylapatite particles to evaluate the affinity. The diameter and length of hydroxylapatite column are 0.7 and 5 cm, and experimented by High Performance Liquid Chromatography system. The elute solution is 0.5 mM PBS (pH 7.4), the flow rate is 0.25 mL/min, and the wavelength is 220 nm.

On to H2N-(Gly)3-(Asp)3-NHAc [L1c], for which the “retention time in hydroxylapatite column test” value is given as 13.0 min.

In the case of HO-Gly-(Asp)6-NHAc [L1b], the “retention time in hydroxylapatite column test” value came to 13.3 min.

Values taken from US9415114B2, “Conformations of divergent peptides with mineral binding affinity” (KAOHSIUNG MEDICAL UNIVERSITY, priority 2011, dated 2016).
